Experiments:
untransformed rice plant = assay: Phenotype and growth in MS medium with 20 μM ABA, untransformed rice plant; type: in vivo; settings: 2 weeks
Method: (§1) In order to investigate the effect of overexpression of OsHDAC1 on the phenotype and growth of Ai::OsHDAC1 rice plant, Ai::OsHDAC1 rice plant was incubated as the first generation and then, young seedlings or calluses at the second generation were transferred to MS medium with or without 20 μM ABA and incubated for 2 weeks. After incubation, the whole shape of rice plant, and leaves, collars and roots were observed. As the control group, untransformed rice plant was also observed. FIGS. 6a, 6b, 6c and 6d are photographs showing the growth and morphological change of Ai::OsHDAC1 rice plant, the change in the growth of leaves, the change of collars and the change of roots, respectively. In each drawing, NT denotes untransformed rice plant and lanes 2, 3 and 4 in FIGS. 6b, 6c and 6d denote respective individuals of transformed Ai::OsHDAC1 rice plant.

[1] = test system: OsHDAC1 transcription product; assay: Effect of ABA treatment on expression of OsHDAC1 transcription product in leaves of Ai::OsHDAC1 rice plant; type: cell-based; settings: 20 μM ABA, MS medium
Method: While leaves of Ai::OsHDAC1 rice plant produced by above Example 5 was incubated in MS medium with or without 20 μM ABA, a total RNA was isolated from leaves at regular intervals to examine the expression level of OsHDAC1 transcription product. As the result, it was identified that the expression of the transcription product reaches at the maximum level one hour after ABA treatment and rapidly decreases after 6 hours. Then, callus cells, leaves and roots of rice plant were incubated in MS medium with or without 20 μM ABA for one hour, and a total RNA was extracted. […] Further, the same result could be confirmed from Western blot analysis of OsHDAC1 protein.

Ai::OsHDAC1 rice plant = assay: Phenotype and growth in MS medium with 20 μM ABA, Ai::OsHDAC1 rice plant; type: in vivo; settings: 2 weeks
Method: as §1

histone deacetylase = assay: Effect of tricostatin A (TSA) treatment on histone H4 acetylation, immunoblot of rice callus cells; type: cell-based; settings: 1 μM TSA with 20 μM ABA, 1 to 6 hours
Method: Rice callus cells, leaves and roots were incubated in MS medium with (+) or without (−) 20 μM ABA for one hour, transferred to MS medium containing 20 μM ABA and 1 μM TSA, incubated for 1 to 6 hours and then subjected to TSA treatment. Next, about 0.1 g of rice tissues was pulverized, homogenized with a buffer solution containing 50 mM Tris-HCl (pH 8.0), 150 mM NaCl, 10% glycerol, 0.5% Triton X-100, 2 mM phenylmethanesulfonyl fluoride, 1 μg/ml aprotinine, 1 μg/ml pepstatin and 1 μg/ml leupeptin, and then incubated at 4° C. for one hour. After incubation, the mixed solution was centrifuged at 4° C. for 5 minutes, and the protein concentration was determined using Bradford solution (BioRad, USA). The protein extract was separated from 12% SDS gel, transferred to polyvinylidene difluoride (PVDF) membrane (Immobilon-P, Millipore), and then reacted with mouse HDAC1 (mHDAC1), histone H4 (H4), acetylated histone (AcH4), the secondary antibody wherein primary antibody to acetylated histone H4 (AcH4) (Upstate Biotechnology, USA) is combined with alkaline phosphatase. […] Thus, it was confirmed that the expression of tetra-acetylated histone H4 as reduced in Ai::OsHDAC1 rice plant is increased again by TSA treatment.

Row | SMILES | growth of untransformed plant in the presence of ABA (untransformed rice plant) | time after ABA treatment at which expression of the transcription product reaches the maximum level [1] | growth of Ai::OsHDAC1 rice plant in the presence of ABA (Ai::OsHDAC1 rice plant) | total H4 after TSA treatment (histone deacetylase) | expression level of tetra-acetylated histone H4 after TSA treatment (histone deacetylase; both Ai::OsHDAC1 and untransformed rice plant callus cells)
1 | CC1=CC(=O)CC(C)(C)[C@@]1(O)/C=C/C(C)=C\C(=O)O [ABA, abscisic acid] | inhibition of growth | one | increase of growth | – | –
2 | CC(/C=C/C(=O)NO)=C\[C@@H](C)C(=O)c1ccc(N(C)C)cc1 [TSA, tricostatin A] | – | – | – | substantially not changed | greatly increased

— patent US20040123348A1, “Method for producing a plant with a high-growth rate” (priority 2002, published 2004)
